Columns and labels:
Format in all cases: cell-based, human
[1] = system: GHRHR mutants (F82, F85, D274, E223, N296, L337, F338 to alanine); assay: β-arrestin 1 recruitment (BRET), GHRHR single-point alanine mutants; details: single residue to alanine; 250 μM GHRH; HEK293T; Fig. 5G
Procedure: (§1) HEK293T cells were seeded at a density of 30,000 cells per well into 96-well culture plates pretreated with poly-D-lysine hydrobromide. After incubation for 24 h to reach 70% to 80% confluence, the cells were transiently transfected with HA-Flag-GHRHR-Rluc8 or HA-Flag-SV1-Rluc8 and β-arrestin 1/2-Venus at a 1:9 mass ratio using lipofectamine 3000 reagent (Invitrogen) and cultured for another 24 h. Thereafter, cells were washed once and incubated for 30 min at 37 °C with HBSS buffer (pH 7.4) supplemented with 0.1% BSA and 10 mM HEPES. Five micromolars of coelenterazine h (YEASEN Biotechnology) was then added and incubated for 5 min in the dark. The bioluminescence resonance energy transfer (BRET) signals were detected with an Envision plate reader by calculating the ratio of emission at 535 nm over emission at 470 nm.

[2] = system: N terminus truncated GHRHRs; assay: β-arrestin 1/2 recruitment (BRET), truncated receptors; details: HEK293T
Procedure: as §1

SV1 mutants = assay: cAMP accumulation, peptide-binding pocket mutants of SV1; details: impairing contacts in the peptide-binding pocket; HEK293T; Fig. 4D
Procedure: GHRH-stimulated cAMP accumulation was measured by a LANCE Ultra cAMP kit (PerkinElmer). Briefly, HEK293T cells (24 h after transfection with SV1 or GHRHR) or prostate cancer cells were digested by 0.2% (wt/vol) EDTA and washed once with Dulbecco’s phosphate-buffered saline (PBS). Cells were then resuspended with stimulation buffer (Hanks’ balanced salt solution [HBSS] supplemented with 5 mM HEPES, 0.5 mM IBMX, and 0.1% [wt/vol] bovine serum albumin [BSA], pH 7.4) to a density of 0.6 million cells per milliliter and added to 384-well white plates (3,000 cells per well). […] The reaction was stopped by adding 5 μL Eu-cAMP tracer and 5 μL ULight-anti-cAMP. After 1 h RT incubation, TR-FRET signals (excitation: 320 nm, emission: 615 and 665 nm) were measured by an Envision plate reader (PerkinElmer). cAMP concentrations were interpolated by a standard curve.

CC[C@H](C)[C@H](NC(=O)[C@H](C)NC(=O)[C@H](CC(=O)O)NC(=O)[C@H](C)NC(=O)[C@@H](N)Cc1ccc(O)cc1)C(=O)N[C@@H](Cc1ccccc1)C(=O)N[C@H](C(=O)N[C@@H](CC(N)=O)C(=O)N[C@@H](CO)C(=O)N[C@@H](Cc1ccc(O)cc1)C(=O)N[C@@H](CCCNC(=N)N)C(=O)N[C@@H](CCCCN)C(=O)N[C@H](C(=O)N[C@@H](CC(C)C)C(=O)NCC(=O)N[C@@H](CCC(N)=O)C(=O)N[C@@H](CC(C)C)C(=O)N[C@@H](CO)C(=O)N[C@@H](C)C(=O)N[C@@H](CCCNC(=N)N)C(=O)N[C@@H](CCCCN)C(=O)N[C@@H](CC(C)C)C(=O)N[C@@H](CC(C)C)C(=O)N[C@@H](CCC(N)=O)C(=O)N[C@@H](CC(=O)O)C(=O)N[C@H](C(=O)N[C@@H](CCSC)C(=O)N[C@@H](CO)C(=O)N[C@@H](CCCNC(=N)N)C(=O)N[C@@H](CCC(N)=O)C(=O)N[C@@H](CCC(N)=O)C(=O)NCC(=O)N[C@@H](CCC(=O)O)C(=O)N[C@@H](CO)C(=O)N[C@@H](CC(N)=O)C(=O)N[C@@H](CCC(N)=O)C(=O)N[C@@H](CCC(=O)O)C(=O)N[C@@H](CCCNC(=N)N)C(=O)NCC(=O)N[C@@H](C)C(=O)N[C@@H](CCCNC(=N)N)C(=O)N[C@@H](C)C(=O)N[C@@H](CCCNC(=N)N)C(=O)N[C@@H](CC(C)C)C(N)=O)[C@@H](C)CC)C(C)C)[C@@H](C)O [GHRH, growth hormone–releasing hormone]
β-arrestin 1 recruitment [1]: significantly increased the capability of GHRHR to recruit β-arrestin 1
β-arrestin 1/2 recruitments ([2]; deletion made before the first 82 residues, 250 μM GHRH): not affected
β-arrestin 1/2 recruitments ([2]; truncation of the first 89 residues or the entire ECD): enhanced
potency of GHRH-induced cAMP accumulation (SV1 mutants): dramatically decreased the potency
